# Earlier results as cited in patent publication US20010050137A1, “Anti-microbial shoe linings, sock liners, and socks and process for manufacture of same” (priority 1995, published 2001).
# Where two headings read alike, the source gives them in different places.
# Tests used:
# most algae = details: in general
# [1] = commercial product, typical value
# Chloroccum tetrasporum = details: DMSO cosolvent
# Escherichia coli = details: ATCC 9637; approx. 10^6 organisms/ml; DMSO cosolvent
# most bacteria = details: in general
# Aureobasidium pullulans = details: ATCC 9348; approx. 10^5 colony-forming units/ml spores; DMSO cosolvent
# [2] = tested on: most fungi (molds and yeasts); details: in general
# [3] = tested on: algae, mold, mildew and bacteria including E-Coli and Salmonella
# Pityrosporum Ovale = details: DMSO cosolvent
# Gliocladium virens = details: ATCC 9645; approx. 10^5 colony-forming units/ml spores; DMSO cosolvent
# Aspergillus niger = details: ATCC 9542; approx. 10^5 colony-forming units/ml spores; DMSO cosolvent
# [4] = for Solubility: 25° C.
# Staphylococcus aureus = details: ATCC 6538; approx. 10^6 organisms/ml; DMSO cosolvent
# Chaetomium globosum = details: ATCC 6205; approx. 10^5 colony-forming units/ml spores; DMSO cosolvent
# Fusarium sp. = details: approx. 10^5 colony-forming units/ml spores; DMSO cosolvent
# [5] = tested on: Streptoverticillium reticulum; details: ATCC 25607; DMSO cosolvent
# Trentopholia odorata = details: DMSO cosolvent
# Klebsiella pheumoniae = details: ATCC 4352; approx. 10^6 organisms/ml; DMSO cosolvent
# Sctonema hofmaannii = details: DMSO cosolvent
# Penicillium pinophilum = details: ATCC 9644; approx. 10^5 colony-forming units/ml spores; DMSO cosolvent
# Streptococcus faecalis = details: ATCC 19433; approx. 10^6 organisms/ml; DMSO cosolvent
# Candida Albicans = details: ATCC 11651; DMSO cosolvent
# Anacystis montana = details: DMSO cosolvent
# Synechocystis minima = details: DMSO cosolvent
# Pseudomonas aeruginosa = details: ATCC 9721; approx. 10^6 organisms/ml; DMSO cosolvent
compound,measurement,setting,value
"c1cc[n+]2c(c1)[S][Zn-2]1([O]2)[O][n+]2ccccc2[S]1 [Zinc Omadine®, bis[1-hydroxy-2(1H)-pyridinethionato-0,S]-(T-4) zinc]",MIC in vitro,most algae,less than 1 ppm
same,Heat Stability: time stable,[1]; at 100° C.,at least 120 hours
same,decomposition temperature,[1],240 °C
same,Minimum Inhibitory Concentrations,Chloroccum tetrasporum,8 Micrograms/ml (ppm)
same,Minimum Inhibitory Concentrations,Escherichia coli,8 Micrograms/ml (ppm)
same,MIC in vitro,most bacteria,less than 50 ppm
same,Minimum Inhibitory Concentrations,Aureobasidium pullulans,<2 Micrograms/ml (ppm)
same,MIC in vitro,[2],less than 5 ppm
same,inhibiting the growth of microorganisms,[3],capable of inhibiting the growth
same,Minimum Inhibitory Concentrations,Pityrosporum Ovale,4 Micrograms/ml (ppm)
same,Minimum Inhibitory Concentrations,Gliocladium virens,64 Micrograms/ml (ppm)
same,Minimum Inhibitory Concentrations,Aspergillus niger,8 Micrograms/ml (ppm)
same,Solubility,[4]; Castor oil,<0.0001 w/w %
same,Solubility,[4]; Chloroform,0.3 w/w %
same,Solubility,[4]; Diethyleneglycol monoethyl ether,0.01 w/w %
same,Solubility,[4]; Dimethylsulfoxide,4 w/w %
same,Solubility,"[4]; Ethanol, 40A",0.01 w/w %
same,Solubility,[4]; Ethyleneglycol monomethyl ether,0.09 w/w %
same,Solubility,[4]; Isopropanol,0.008 w/w %
same,Solubility,[4]; Isopropyl myristate,<0.0001 w/w %
same,Solubility,[4]; Isopropyl palmitate,<0.0001 w/w %
same,Solubility,"[4]; Mineral oil, light",<0.0001 w/w %
same,Solubility,[4]; Olive oil,<0.0003 w/w %
same,Solubility,[4]; Polyethylene glycol 400,0.2 w/w %
same,Solubility,[4]; Propylene glycol,0.02 w/w %
same,Solubility,"[4]; Water, pH 7, technical grade material, average",0.0008 w/w %
same,Solubility in water,"[4]; water, 95 percent powder form",insoluble in water
same,Minimum Inhibitory Concentrations,Staphylococcus aureus,4 Micrograms/ml (ppm)
same,Minimum Inhibitory Concentrations,Chaetomium globosum,<2 Micrograms/ml (ppm)
same,Minimum Inhibitory Concentrations,Fusarium sp.,32 Micrograms/ml (ppm)
same,Minimum Inhibitory Concentrations,[5],4 Micrograms/ml (ppm)
same,Minimum Inhibitory Concentrations,Trentopholia odorata,<0.06 Micrograms/ml (ppm)
same,Minimum Inhibitory Concentrations,Klebsiella pheumoniae,8 Micrograms/ml (ppm)
same,Minimum Inhibitory Concentrations,Sctonema hofmaannii,0.5 Micrograms/ml (ppm)
same,Minimum Inhibitory Concentrations,Penicillium pinophilum,<2 Micrograms/ml (ppm)
same,Minimum Inhibitory Concentrations,Streptococcus faecalis,16 Micrograms/ml (ppm)
same,Minimum Inhibitory Concentrations,Candida Albicans,<2 Micrograms/ml (ppm)
same,Minimum Inhibitory Concentrations,Anacystis montana,<0.06 Micrograms/ml (ppm)
same,Minimum Inhibitory Concentrations,Synechocystis minima,<0.06 Micrograms/ml (ppm)
same,Minimum Inhibitory Concentrations,Pseudomonas aeruginosa,512 Micrograms/ml (ppm)
